Source: patent publication US7427395B2, “Chemotherapeutic agent-incorporated pharmaceutical preparation” (Genomidea Inc., priority 2002, dated 2008)
Read-outs that look alike come from different tables or passages of the source.

Key:
[1] = test system: mouse colon carcinoma cell CT26; conditions: 30 min at 37° C., counted 2 days later
Method: A microtube containing the sample was centrifuged at 15,000 rpm for 15 minutes at 4° C. to give the HVJ-E vector as a precipitate, and the supernatant was removed. […] Further, 2 μl of 3% Triton-X100 was added thereto to prepare a sample containing Triton-X100 at a final concentration of 0.1%, which was then left on ice for 15 minutes. Thereafter, 500 μl PBS solution was added thereto. The microtube was centrifuged at 15,000 rpm for 15 minutes at 4° C., and the supernatant was removed without removing the precipitate, and 500 μl PBS solution was added again to the precipitate. The microtube was centrifuged again at 15,000 rpm for 15 minutes at 4° C., and the supernatant was removed without removing the precipitate.
The resulting precipitate was suspended in 180 μl PBS, and the resulting sample solution was pipetted in a volume of 30 μl/microtube into 6 microtubes. Five microlitters of protamine sulfate solution prepared at 5 mg/ml and 500 μl DMEM solution (Dulbecco's modified Eagle medium) were added to each tube.
The above sample solution was added to mouse colon carcinoma cell CT26 prepared on a 6-well plate. The plate was kept for 30 minutes in an incubator at 37° C., and then the medium was exchanged with 500 μl medium (DMEM containing 10% FCS). The cells were incubated for 2 days in a CO2 incubator at 37° C. Two days later, the number of viable cells was counted to evaluate the anticancer effect.

[2] = test system: colon carcinoma CT26; test: In vivo experiment: tumor volume of subcutaneously transplanted CT26 after administration into the tumor (Example 2); conditions: for average tumor volume (mean): 100 μl/mouse into the tumor, n=8
Method: A microtube containing the sample was centrifuged at 15,000 rpm for 15 minutes at 4° C. to give the HVJ-E vector as a precipitate, and the supernatant was removed. […] Further, 2 μl of 3% Triton-X100 was added thereto to the final concentration of 0.1%, which was then kept on ice for 15 minutes. Thereafter, 500 μl PBS solution was added thereto. The microtube was centrifuged at 15,000 rpm for 15 minutes at 4° C., and the supernatant was removed without removing the precipitate, and 500 μl PBS solution was added thereto. The microtube was centrifuged again at 15,000 rpm for 15 minutes at 4° C., and the supernatant was removed without removing the precipitate. The resulting precipitate was suspended in 120 μl PBS.
In this animal experiment, BALB/c mice (8-week-old, male) were used. […] The CT-26 cells to be transplanted were suspended in DMEM medium containing 10% FCS, and 5×10^6 cells (100 μl PBS/mouse) were transplanted in the back. The mice were anesthetized by intraperitoneal administration of 500 μl of 20-fold-diluted Nembutal injection. The volume of the transplanted cancer cells was estimated by calculation of major axis×minor axis×minor axis/2. When the diameter of the tumor reached 7 to 8 mm one week after transplantation, 100 μl of the sample prepared above was administered into the site of the cancer in the mouse. On Days 7, 10, 13, 16 and 19 (that is, 3-day intervals) after transplantation of the cancer cells, the tumor diameter was measured to evaluate the anticancer effect. The number of animals was 8 in each group.

[3] = test system: Mouse colon cancer-derived CT-26 cells; test: In vivo experiment (2): tumor volume and tumor weight of transplanted CT-26, HVJ-E/BLM into the tumor with or without intraperitoneal CDDP (Example 3); design: species or system BALB/cAnNCrj male mice
[4] = Day 16 (9 days after sample administration)

Row | Molecule | Number of viable cells (mean) ([1]; 1/50 bleomycin group: bleomycin 50 μg/DMEM 500 μl/well) | Number of viable cells (mean) ([1]; 1/500 bleomycin group: bleomycin 5 μg/DMEM 500 μl/well) | Number of viable cells (mean) ([1]; 1/500 bleomycin group: bleomycin 5 μg/DMEM 500 μl/well, listed as bleomycin) | Number of viable cells (mean) ([1]; 1/5,000 bleomycin group: bleomycin 500 ng/DMEM 500 μl/well) | Number of viable cells (mean) ([1]; 1/5,000 bleomycin group: bleomycin 500 ng/DMEM 500 μl/well, listed as bleomycin) | average tumor volume (mean) ([2]; Day 7 (time of sample administration)) | average tumor volume (mean) ([2]; Day 10 (Day 3 after sample administration)) | average tumor volume (mean) ([2]; Day 13) | tumor volume shrinkage effect relative to the PBS administration group (0%) [2, 4] | average tumor volume (mean) [2, 4] | average tumor volume (mean) ([2]; Day 16 (9 days after sample administration), listed as BLM) | antitumor effect in vivo (in words) ([2]; direct administration into the solid tumor) | tumor weight on Day 21 after administration ([3]; CDDP 0.2 mg/body i.p. once, alone or with 13 mg/tumor HVJ-E/BLM into the tumor) | average tumor volume on Day 21 ([3]; CDDP 0.2 mg/body i.p. once, alone or with 13 mg/tumor HVJ-E/BLM into the tumor, 10 mice) | tumor weight on Day 21 after administration ([3]; CDDP 0.4 mg/body i.p. once, alone or with HVJ-E into the tumor) | average tumor volume on Day 21 ([3]; CDDP 0.4 mg/body i.p. once, 3 mice)
1 | bleomycin | 81800 | 164600 | 164,600 | 196800 | 196,800 | 158.4 mm^3 | 413.70 mm^3 | 754.7 mm^3 | 3.4% | 1234.6 mm^3 | 1,235 mm^3 | Antitumor effect was hardly recognized |  |  |  | 
2 | [NH2][Pt]([NH2])([Cl])[Cl] [CDDP, cisplatin] |  |  |  |  |  |  |  |  |  |  |  |  | 1619.79 mg | 1720.14 mm^3 | 1164.13 mg | 1367.62 mm^3
